The values that follow come from PubChem BioAssay AID504936 (NMMLSC, 2011).

This experiment relates to S. cerevisiae BY4741 DNA content flow cytometry, cell cycle. As to the kind of experiment: S. cerevisiae cell cycle DNA content profile – flow cytometry (AID 504936).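 As to all read-outs here: yeast exposed to compound for three five or seven days before fixation.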 The following applies: at 10 µM; for G1/G0 population: stronger effect = higher value; for G2 population: measured here: G2 phase fraction, stronger effect = lower value; for apoptotic population: measured here: apoptotic fraction. For orientation: Flow cytometry measures light scatter and fluorescence of single cells or particles in a stream.

The source made the active and inactive calls.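 The calls were made as follows: active = cytostatic effect above 60% on a scale from DMSO controls to rapamycin controls, holding yeast in G1/G0 phase; inactive = the rest.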

Turning to `Cc1ccc(-c2nn(C(C)(C)C)c3ncnc(N)c23)cc1`, the G1/G0 population is 70.3% (inactive), the G2 population worked out at 9.27% and the apoptotic population turned out to be 16.3%.
As to `CC(C)(C)Nc1ncnc2c1cnn2-c1ccccc1`, the G1/G0 population is 62.9% (inactive), the G2 population came to 10.3% and the apoptotic population worked out at 25%.
`CCc1nc(NC(C)(C)C)c2cnn(-c3ccccc3)c2n1`: the G1/G0 population was 75.3% (inactive), the G2 population came out at 13.1% and the apoptotic population was found to be 9.99%.
Regarding `C=CCOn1c(=O)c(-c2cccs2)[n+]([O-])c2ccccc21`, the G1/G0 population was 73.2% (inactive), the G2 population is 13.9% and the apoptotic population was 11.3%.
The matching figures for `C[C@@]12C(=O)OC(=O)[C@]1(C)C1CCC2O1`: 61.6% (inactive), 9.56% and 24.9%.
The matching figures for `CC(C)OC(=O)CSc1nnc(-c2ccc(Cl)cc2Cl)o1`: 79.6% (inactive), 12.9% and 6.08%.
Regarding `O=C(/C=C/c1ccccc1)NC(=S)NNC(=O)Cc1cccs1`, the G1/G0 population is 80.1%, the G2 population is 3.91% and the apoptotic population was determined as 12.7%.
The matching figures for `COc1ccc2cc(C3CC(c4ccco4)=NN3S(=O)(=O)c3ccccc3)c(Cl)nc2c1` (stereo unspecified): 79% (inactive), 12.7% and 6.88%.
Regarding `CCN(CC)C(=O)c1ccc2nc3ccccc3nc2c1`, the G1/G0 population was 78.8% (inactive), the G2 population was found to be 11.3% and the apoptotic population stood at 8.05%.
As to `Nc1cc2nc3ccccc3nc2cc1N`, the G1/G0 population was 79% (inactive), the G2 population turned out to be 9.84% and the apoptotic population was 9%.
The matching figures for `C[n+]1c2ccccc2nc2ccc(NCCO)cc21`: 77.6% (inactive), 7.26% and 8.98%.
Taken in the same sequence, the figures for `CCN(CC)C(=O)c1cccc2nc3ccccc3nc12` were 42.7% (inactive), 8.88% and 46.6%.
The matching figures for `CC(C)(C)n1nc(-c2ccc(Cl)cc2)c2c(N)ncnc21`: 70.8% (inactive), 0.23% and 12.6%.
As for `CCn1c2ccccc2c2n[nH]c(=S)nc21`, the G1/G0 population is 80% (inactive), the G2 population was 11.1% and the apoptotic population was found to be 6.8%.
Taken in the same sequence, the figures for `C=CCSc1ccc(-c2ccc([N+](=O)[O-])cc2)o1` were 65.8% (inactive), 10.1% and 21.7%.
With `CSc1nnc(-c2ccc([N+](=O)[O-])cc2)o1`, the G1/G0 population is 79.2% (inactive), the G2 population amounted to 10.8% and the apoptotic population stood at 8.39%.
Turning to `FC(F)(F)c1nc2cc3nc4ccccc4[nH]c3cc2n1`, the G1/G0 population was 71.5% (inactive), the G2 population turned out to be 10.6% and the apoptotic population turned out to be 12.3%.
